In experiment [1] the target is T1, Maternal embryonic leucine zipper kinase (Homo sapiens, UniProt Q14680). Kind of experiment: Binding affinity to human N-terminal His-tagged MELK (1 to 337 residues) expressed in Escherichia coli BL21 pLysS at 50 uM by STD-NMR analysis.
Target sequence in this assay (Q14680 whole entry, looked up, the tested form may be a part): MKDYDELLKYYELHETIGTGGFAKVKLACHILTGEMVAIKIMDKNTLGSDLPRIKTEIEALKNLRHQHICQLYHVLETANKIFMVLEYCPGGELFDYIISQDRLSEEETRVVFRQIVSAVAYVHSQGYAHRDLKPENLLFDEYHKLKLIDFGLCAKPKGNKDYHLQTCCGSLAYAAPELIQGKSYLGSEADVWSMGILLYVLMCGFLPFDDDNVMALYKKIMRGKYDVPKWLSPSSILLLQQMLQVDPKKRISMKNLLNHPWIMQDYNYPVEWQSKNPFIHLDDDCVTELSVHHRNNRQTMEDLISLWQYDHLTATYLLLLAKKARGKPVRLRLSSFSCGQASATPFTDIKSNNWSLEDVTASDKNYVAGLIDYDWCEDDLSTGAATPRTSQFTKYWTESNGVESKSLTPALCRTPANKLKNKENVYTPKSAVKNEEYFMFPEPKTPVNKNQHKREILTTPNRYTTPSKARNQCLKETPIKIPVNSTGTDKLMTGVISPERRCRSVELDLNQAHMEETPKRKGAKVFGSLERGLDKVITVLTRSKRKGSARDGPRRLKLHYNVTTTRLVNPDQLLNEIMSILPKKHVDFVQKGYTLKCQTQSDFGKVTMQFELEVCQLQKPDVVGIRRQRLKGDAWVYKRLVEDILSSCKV
Experiment [2] concerns the target T1, Maternal embryonic leucine zipper kinase. The experiment can be described thus: Displacement of kinase tracer 236 from human N-terminal His-tagged MELK (1 to 337 residues) expressed in Escherichia coli BL21 pLysS by microscale thermophoresis assay. For orientation: Microscale thermophoresis detects binding through changes in fluorescence in a small temperature gradient.
Target sequence in this assay (Q14680 whole entry, the tested form may be a part): as the sequence (Q14680 whole entry, looked up, the tested form may be a part) above

pEC50, pKi: −log10 of the molar value. Active and inactive are the calls of the source. No cut-off for these calls is given here.

One may read the pEC50 as the negative decadic logarithm of the EC50, by convention in mol/L. A lower pEC50 goes with a large EC50. What is called pKi is −log10 of the Ki, conventionally taken in molar units.

Turning to `Nc1cccc2cc[nH]c(=O)c12`, the result in experiment [1] was Active. In experiment [2], the pEC50 is 4.68 and the pKi is 5.26.

Source of the values: ChEMBL document CHEMBL4699400, “Discovery of a novel kinase hinge binder fragment by dynamic undocking” (RSC Med Chem, 2020).
